Laboratory results: article PMC8359193, “Summary of reference chemicals evaluated by the fish short‐term reproduction assay, OECD TG229, using Japanese Medaka, Oryzias latipes” (Journal of Applied Toxicology, 2021)

What was measured:
[1] = test system: Japanese medaka (Oryzias latipes); test: Fish short-term reproduction assay (FSTRA, OECD TG229), 21-day flow-through exposure; details: for LOEC on VTG induction in male (in molarity) / LOEC for VTG induction in males: hepatic VTG; for LOEC on VTG induction in male (in molarity) / LOEC for VTG induction in males / effect on male GSI, in words / effect on fecundity (number of total eggs), in words: 21-day exposure; for LOEC for VTG induction in males: measured conc.; for effect on male GSI, in words: highest concentration; for Fertility rate (%) / Mortality (%) Female / Mortality (%) Male / Number of fertilized eggs / Number of total eggs / SSC Female / SSC Male / VTG (ng/mg of liver) Female / VTG (ng/mg of liver) Male: 21 days; for GSI Female / GSI Male / HSI Female / HSI Male / Length Female / Length Male / Weight Female / Weight Male: at completion of exposure; for effect on fecundity (number of total eggs), in words: within the test concentrations
How it was run: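 Run to OECD TG229: mature NIES-R medaka pairs (3♂/3♀ per vessel, 4 vessels per treatment plus dilution water control) were dosed by continuous flow-through for 21 days. Test concentrations were spaced 2- to 5-fold. Daily spawned eggs were counted under the microscope for fertilized versus unfertilized.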

[2] = test system: Japanese medaka; details: F0 generation, FLCT, cited from earlier work

Compound: CCC(C)(C)c1ccc(O)cc1 [PTH, 4‐tert‐Pentylphenol]
- LOEC on VTG induction in male (in molarity) [1]: 590 nM
- LOEC for VTG induction in males [1]: 96.5 µg/L
- effect on male GSI, in words [1]: significant decreasing
- LOEC (in molarity) for male VTG: times higher than that of E2 ([1]; in vivo): 14,000 times
- LOEC on male VTG induction: times smaller than the LOEC for CMP ([1]; in vivo): > 8 times
- Fertility rate (%) ([1]; measured conc. 96.5 μg/L): 92%
- Mortality (%) Female ([1]; measured conc. 96.5 μg/L): 8.3%
- Mortality (%) Male ([1]; measured conc. 96.5 μg/L): 0%
- Number of fertilized eggs ([1]; measured conc. 96.5 μg/L): 18
- Number of total eggs ([1]; measured conc. 96.5 μg/L): 19 ± 6.6 /female/day
- SSC Female ([1]; measured conc. 96.5 μg/L): 0 ± 0
- SSC Male ([1]; measured conc. 96.5 μg/L): 98 ± 8.0
- VTG (ng/mg of liver) Female ([1]; measured conc. 96.5 μg/L): 1,680 ± 240 ng/mg of liver
- VTG (ng/mg of liver) Male ([1]; measured conc. 96.5 μg/L): 83.2 ± 106 ng/mg of liver
- GSI Female ([1]; measured conc. 96.5 μg/L): 9.5%
- GSI Male ([1]; measured conc. 96.5 μg/L): 0.74%
- HSI Female ([1]; measured conc. 96.5 μg/L): 4.3%
- HSI Male ([1]; measured conc. 96.5 μg/L): 2.5%
- Length Female ([1]; measured conc. 96.5 μg/L): 34.8 mm
- Length Male ([1]; measured conc. 96.5 μg/L): 35.8 mm
- Weight Female ([1]; measured conc. 96.5 μg/L): 470 mg
- Weight Male ([1]; measured conc. 96.5 μg/L): 532 mg
- Fertility rate (%) ([1]; measured conc. 342 μg/L): 93%
- Mortality (%) Female ([1]; measured conc. 342 μg/L): 8.3%
- Mortality (%) Male ([1]; measured conc. 342 μg/L): 0%
- Number of fertilized eggs ([1]; measured conc. 342 μg/L): 17
- Number of total eggs ([1]; measured conc. 342 μg/L): 18 ± 3.6 /female/day
- SSC Female ([1]; measured conc. 342 μg/L): 0 ± 0
- SSC Male ([1]; measured conc. 342 μg/L): 94 ± 14
- VTG (ng/mg of liver) Female ([1]; measured conc. 342 μg/L): 2,820 ± 1,540 ng/mg of liver
- VTG (ng/mg of liver) Male ([1]; measured conc. 342 μg/L): 621 ± 265 ng/mg of liver
- GSI Female ([1]; measured conc. 342 μg/L): 8.1%
- GSI Male ([1]; measured conc. 342 μg/L): 0.67%
- HSI Female ([1]; measured conc. 342 μg/L): 4.5%
- HSI Male ([1]; measured conc. 342 μg/L): 3.1%
- Length Female ([1]; measured conc. 342 μg/L): 34.5 mm
- Length Male ([1]; measured conc. 342 μg/L): 34.7 mm
- Weight Female ([1]; measured conc. 342 μg/L): 476 mg
- Weight Male ([1]; measured conc. 342 μg/L): 516 mg
- Fertility rate (%) ([1]; measured conc. 1,100 μg/L): 74%
- Mortality (%) Female ([1]; measured conc. 1,100 μg/L): 17%
- Mortality (%) Male ([1]; measured conc. 1,100 μg/L): 8.3%
- Number of fertilized eggs ([1]; measured conc. 1,100 μg/L): 10
- Number of total eggs ([1]; measured conc. 1,100 μg/L): 13 ± 3.6 /female/day
- SSC Female ([1]; measured conc. 1,100 μg/L): 0 ± 0
- SSC Male ([1]; measured conc. 1,100 μg/L): 95 ± 5.0
- VTG (ng/mg of liver) Female ([1]; measured conc. 1,100 μg/L): 5,770 ± 2,880 ng/mg of liver
- VTG (ng/mg of liver) Male ([1]; measured conc. 1,100 μg/L): 9,740 ± 800 ng/mg of liver
- GSI Female ([1]; measured conc. 1,100 μg/L): 8.4%
- GSI Male ([1]; measured conc. 1,100 μg/L): 0.51%
- HSI Female ([1]; measured conc. 1,100 μg/L): 4.7%
- HSI Male ([1]; measured conc. 1,100 μg/L): 4.1%
- Length Female ([1]; measured conc. 1,100 μg/L): 33.3 mm
- Length Male ([1]; measured conc. 1,100 μg/L): 34.5 mm
- Weight Female ([1]; measured conc. 1,100 μg/L): 438 mg
- Weight Male ([1]; measured conc. 1,100 μg/L): 498 mg
- effect on fecundity (number of total eggs), in words [1]: significant decrease
- LOEC on VTG induction ([2]; ref Seki et al. (2003)): ≤ 51.1 µg/L
- LOEC on reproductive impairment ([2]; ref Seki et al. (2003)): 224 µg/L

Compound: C#C[C@]1(O)CC[C@H]2[C@@H]3CCc4cc(O)ccc4[C@H]3CC[C@@]21C [EE2, 17α‐Ethynylestradiol]
- LOEC on VTG induction in male (in molarity) [1]: 0.06 nM
- LOEC for VTG induction in males [1]: 0.0178 µg/L
- effect on male GSI, in words [1]: significant decreasing
- LOEC on male VTG induction: times smaller than the LOEC for CMP ([1]; in vivo): more than 8,000 times
- Fertility rate (%) ([1]; measured conc. 17.8 ng/L): 84%
- Mortality (%) Female ([1]; measured conc. 17.8 ng/L): 0%
- Mortality (%) Male ([1]; measured conc. 17.8 ng/L): 0%
- Number of fertilized eggs ([1]; measured conc. 17.8 ng/L): 15
- Number of total eggs ([1]; measured conc. 17.8 ng/L): 18 ± 2.3 /female/day
- SSC Female ([1]; measured conc. 17.8 ng/L): 0 ± 0
- SSC Male ([1]; measured conc. 17.8 ng/L): 90 ± 8.1
- VTG (ng/mg of liver) Female ([1]; measured conc. 17.8 ng/L): 2,170 ± 223 ng/mg of liver
- VTG (ng/mg of liver) Male ([1]; measured conc. 17.8 ng/L): 68.3 ± 80.4 ng/mg of liver
- GSI Female ([1]; measured conc. 17.8 ng/L): 10.0%
- GSI Male ([1]; measured conc. 17.8 ng/L): 0.75%
- HSI Female ([1]; measured conc. 17.8 ng/L): 4.2%
- HSI Male ([1]; measured conc. 17.8 ng/L): 2.3%
- Length Female ([1]; measured conc. 17.8 ng/L): 35.4 mm
- Length Male ([1]; measured conc. 17.8 ng/L): 35.9 mm
- Weight Female ([1]; measured conc. 17.8 ng/L): 516 mg
- Weight Male ([1]; measured conc. 17.8 ng/L): 531 mg
- Fertility rate (%) ([1]; measured conc. 84.9 ng/L): 88%
- Mortality (%) Female ([1]; measured conc. 84.9 ng/L): 0%
- Mortality (%) Male ([1]; measured conc. 84.9 ng/L): 0%
- Number of fertilized eggs ([1]; measured conc. 84.9 ng/L): 15
- Number of total eggs ([1]; measured conc. 84.9 ng/L): 17 ± 4.9 /female/day
- SSC Female ([1]; measured conc. 84.9 ng/L): 0 ± 0
- SSC Male ([1]; measured conc. 84.9 ng/L): 88 ± 5.7
- VTG (ng/mg of liver) Female ([1]; measured conc. 84.9 ng/L): 3,840 ± 1,370 ng/mg of liver
- VTG (ng/mg of liver) Male ([1]; measured conc. 84.9 ng/L): 10,900 ± 3,840 ng/mg of liver
- GSI Female ([1]; measured conc. 84.9 ng/L): 9.5%
- GSI Male ([1]; measured conc. 84.9 ng/L): 0.60%
- HSI Female ([1]; measured conc. 84.9 ng/L): 3.7%
- HSI Male ([1]; measured conc. 84.9 ng/L): 2.7%
- Length Female ([1]; measured conc. 84.9 ng/L): 35.8 mm
- Length Male ([1]; measured conc. 84.9 ng/L): 36.3 mm
- Weight Female ([1]; measured conc. 84.9 ng/L): 498 mg
- Weight Male ([1]; measured conc. 84.9 ng/L): 548 mg
- Fertility rate (%) ([1]; measured conc. 424 ng/L): 73%
- Mortality (%) Female ([1]; measured conc. 424 ng/L): 8%
- Mortality (%) Male ([1]; measured conc. 424 ng/L): 33%
- Number of fertilized eggs ([1]; measured conc. 424 ng/L): 8
- Number of total eggs ([1]; measured conc. 424 ng/L): 10 ± 2.8 /female/day
- SSC Female ([1]; measured conc. 424 ng/L): 0 ± 0
- SSC Male ([1]; measured conc. 424 ng/L): 86 ± 6.7
- VTG (ng/mg of liver) Female ([1]; measured conc. 424 ng/L): 15,100 ± 4,290 ng/mg of liver
- VTG (ng/mg of liver) Male ([1]; measured conc. 424 ng/L): 23,900 ± 3,760 ng/mg of liver
- GSI Female ([1]; measured conc. 424 ng/L): 10.4%
- GSI Male ([1]; measured conc. 424 ng/L): 0.33%
- HSI Female ([1]; measured conc. 424 ng/L): 3.8%
- HSI Male ([1]; measured conc. 424 ng/L): 3.4%
- Length Female ([1]; measured conc. 424 ng/L): 35.3 mm
- Length Male ([1]; measured conc. 424 ng/L): 35.1 mm
- Weight Female ([1]; measured conc. 424 ng/L): 507 mg
- Weight Male ([1]; measured conc. 424 ng/L): 531 mg
- effect on fecundity (number of total eggs), in words [1]: significant decrease
- concentration that significantly elevated male VTG and reduced fertility ([2]; ref MOE, 2006): 9.26 pg/mL
